Source: US9840503B2, “Heterocyclic compounds and uses thereof” (Incyte Corporation, priority 2015, dated 2017)

Legend:
Type in all cases: biochemical
[1] = target: AXL (Homo sapiens (Human), UniProt P30530); test: TAM Enzymatic Assay (HTRF), AXL; conditions: 13.8 nM AXL, 100 uM ATP, 60 min room temperature
Procedure: (§1) The assay buffer contained 50 mM HEPES, pH7.5, 10 mM MgCl2, 1 mM EGTA, 0.01% NP-40 and 2 mM DTT. 0.5 ul test compounds dissolved in DMSO were transferred from compound plates to white 384-well assay plates (Greiner […] plates). […] A 1 mM stock solution of peptide substrate Biotin-[…]-amide (Quality Controlled Biochemicals, MA) dissolved in DMSO was diluted to 1 uM in assay buffer containing 100 uM ATP (for AXL and c-MER assays) or 20 uM ATP (for TYRO3 assay). 10 ul enzyme solution (or assay buffer for the enzyme blank) was added to the appropriate wells in each plate, and then 10 ul/well substrate solution was added to initiate the reaction. The plate was protected from light and incubated at room temperature for 60 min. […] The plate was incubated for 1 h at room temperature, and HTRF (homogenous time resolved fluorescence) signal was measured on a PHERAstar FS plate reader (BMG labtech). Percentage of inhibition was calculated for each concentration and IC50 value was generated from curve fitting with GraphPad Prism software.

[2] = target: c-MER (Homo sapiens (Human), UniProt Q12866); test: TAM Enzymatic Assay (HTRF), c-MER; conditions: 4.1 nM c-MER, 100 uM ATP, 60 min room temperature
Chain of c-MER (Q12866 21-999): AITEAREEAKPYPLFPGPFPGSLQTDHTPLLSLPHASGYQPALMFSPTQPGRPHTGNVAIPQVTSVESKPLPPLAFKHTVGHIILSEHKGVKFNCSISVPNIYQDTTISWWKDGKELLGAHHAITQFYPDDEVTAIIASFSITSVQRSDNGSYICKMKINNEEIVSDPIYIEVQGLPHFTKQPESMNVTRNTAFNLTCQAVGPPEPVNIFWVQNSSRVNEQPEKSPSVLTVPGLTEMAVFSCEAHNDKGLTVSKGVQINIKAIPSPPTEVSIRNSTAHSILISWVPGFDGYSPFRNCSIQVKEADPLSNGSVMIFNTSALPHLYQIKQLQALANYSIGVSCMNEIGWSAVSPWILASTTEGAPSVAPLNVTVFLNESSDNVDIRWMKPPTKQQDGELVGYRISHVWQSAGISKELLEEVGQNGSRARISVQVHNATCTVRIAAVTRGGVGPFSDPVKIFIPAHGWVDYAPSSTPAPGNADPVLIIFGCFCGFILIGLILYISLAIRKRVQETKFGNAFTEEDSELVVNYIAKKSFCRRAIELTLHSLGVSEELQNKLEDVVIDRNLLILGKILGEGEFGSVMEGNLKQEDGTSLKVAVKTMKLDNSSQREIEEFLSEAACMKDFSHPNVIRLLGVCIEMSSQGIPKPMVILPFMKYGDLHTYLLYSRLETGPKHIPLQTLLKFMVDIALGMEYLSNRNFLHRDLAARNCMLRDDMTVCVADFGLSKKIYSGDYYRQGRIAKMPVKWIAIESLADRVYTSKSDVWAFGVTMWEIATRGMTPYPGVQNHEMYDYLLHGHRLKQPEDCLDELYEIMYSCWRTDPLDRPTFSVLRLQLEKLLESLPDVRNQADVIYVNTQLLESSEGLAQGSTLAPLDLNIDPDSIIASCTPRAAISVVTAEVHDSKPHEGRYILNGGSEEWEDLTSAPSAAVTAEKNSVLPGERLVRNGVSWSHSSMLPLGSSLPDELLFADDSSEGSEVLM
Procedure: as §1

[3] = target: TYRO3 (Homo sapiens (Human), UniProt Q06418); test: TAM Enzymatic Assay (HTRF), TYRO3; conditions: 0.366 nM TYRO3, 20 uM ATP, 60 min room temperature
Chain of TYRO3 (Q06418 41-890): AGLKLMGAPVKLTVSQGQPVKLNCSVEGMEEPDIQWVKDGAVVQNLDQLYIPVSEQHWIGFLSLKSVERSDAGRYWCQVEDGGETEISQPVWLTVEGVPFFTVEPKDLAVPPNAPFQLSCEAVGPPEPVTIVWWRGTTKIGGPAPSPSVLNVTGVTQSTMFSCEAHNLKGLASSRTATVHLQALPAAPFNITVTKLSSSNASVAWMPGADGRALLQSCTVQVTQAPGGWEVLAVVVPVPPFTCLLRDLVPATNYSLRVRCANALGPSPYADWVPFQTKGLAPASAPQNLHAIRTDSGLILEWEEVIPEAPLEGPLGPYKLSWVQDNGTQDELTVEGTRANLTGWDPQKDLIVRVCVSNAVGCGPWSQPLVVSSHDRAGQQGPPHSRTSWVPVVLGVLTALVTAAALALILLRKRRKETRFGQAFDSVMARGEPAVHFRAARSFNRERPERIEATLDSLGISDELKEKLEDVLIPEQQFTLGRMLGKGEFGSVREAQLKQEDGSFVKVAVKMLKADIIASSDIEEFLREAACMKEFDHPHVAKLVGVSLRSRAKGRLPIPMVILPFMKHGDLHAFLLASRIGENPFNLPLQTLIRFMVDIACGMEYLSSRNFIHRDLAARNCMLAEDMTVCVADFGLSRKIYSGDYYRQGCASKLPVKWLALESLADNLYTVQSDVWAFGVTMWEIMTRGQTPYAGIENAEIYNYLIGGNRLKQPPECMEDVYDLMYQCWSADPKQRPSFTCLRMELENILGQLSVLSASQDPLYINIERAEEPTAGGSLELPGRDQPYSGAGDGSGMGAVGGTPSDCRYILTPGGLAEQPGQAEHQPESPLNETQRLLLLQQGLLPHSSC
Procedure: as §1

Chain of AXL (P30530 26-894): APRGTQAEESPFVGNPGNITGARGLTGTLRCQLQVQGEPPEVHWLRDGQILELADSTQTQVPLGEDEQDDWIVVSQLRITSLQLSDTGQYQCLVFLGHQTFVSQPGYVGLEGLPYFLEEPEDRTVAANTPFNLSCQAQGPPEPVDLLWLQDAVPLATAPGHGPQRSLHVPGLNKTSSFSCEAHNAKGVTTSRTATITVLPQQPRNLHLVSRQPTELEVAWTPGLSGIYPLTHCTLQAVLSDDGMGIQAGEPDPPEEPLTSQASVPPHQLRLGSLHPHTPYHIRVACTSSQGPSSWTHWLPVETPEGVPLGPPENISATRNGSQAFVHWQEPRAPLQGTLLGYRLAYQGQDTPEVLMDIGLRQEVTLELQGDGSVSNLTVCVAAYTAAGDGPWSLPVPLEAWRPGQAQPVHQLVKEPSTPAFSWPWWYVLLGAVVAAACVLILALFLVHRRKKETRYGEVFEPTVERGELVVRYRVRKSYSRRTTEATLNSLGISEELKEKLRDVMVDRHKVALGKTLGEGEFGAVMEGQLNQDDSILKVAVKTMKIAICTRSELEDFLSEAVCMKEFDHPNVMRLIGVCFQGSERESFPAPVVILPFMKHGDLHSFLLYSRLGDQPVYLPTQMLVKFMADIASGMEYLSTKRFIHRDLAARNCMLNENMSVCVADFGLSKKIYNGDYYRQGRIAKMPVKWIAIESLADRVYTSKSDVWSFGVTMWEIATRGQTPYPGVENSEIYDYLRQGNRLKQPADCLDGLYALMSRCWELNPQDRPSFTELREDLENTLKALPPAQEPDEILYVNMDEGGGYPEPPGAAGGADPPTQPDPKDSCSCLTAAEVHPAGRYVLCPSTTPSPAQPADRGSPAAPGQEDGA

IC50 [1] [nM]	IC50 [2] [nM]	IC50 [3] [nM]	Structure (SMILES)
< 100	< 100	< 100	CCCCNc1ncc2c(n1)N([C@H]1CC[C@H](O)CC1)Cc1cc(CNC3CCCCC3)ccc1-2 [Example 3, trans-4-[3-(Butylamino)-8-[(cyclohexylamino)methyl]pyrimido[4,5-c]isoquinolin-5(6H)-yl]cyclohexanol]
< 100	< 100	< 100	CCCCNc1ncc2c(n1)N([C@H]1CC[C@H](N)CC1)Cc1cc(CNC3CCCCC3)ccc1-2 [Example 9, 5-(trans-4-Aminocyclohexyl)-N-butyl-8-[(cyclohexylamino)methyl]-5,6-dihydropyrimido [4,5-c]isoquinolin-3-amine]
> 1000	> 1000	> 1000	CCCCNc1ncc2c3ccc(-c4c(F)cccc4F)cc3c(=O)n([C@H]3CC[C@H](O)CC3)c2n1 [Example 8, 3-(Butylamino)-8-(2,6-difluorophenyl)-5-(trans-4-hydroxycyclohexyl)pyrimido[4,5-c]isoquinolin-6(5H)-one]
	< 100	< 100	CCCCNc1ncc2c3ccc(CNC4CCCCC4)cc3c(=O)n([C@H]3CC[C@H](O)CC3)c2n1 [Example 2, 3-(Butylamino)-8-[(cyclohexylamino)methyl]-5-(trans-4-hydroxycyclohexyl)pyrimido[4,5-c]isoquinolin-6(5H)-one]
	< 100	< 100	CCCCNc1ncc2c3ccc(CNC4CCCCC4)cc3c(=O)n([C@H]3CC[C@H](N)CC3)c2n1 [Example 6, 5-(trans-4-aminocyclohexyl)-3-(butylamino)-8-((cyclohexylamino)methyl)pyrimido[4,5-c]isoquinolin-6(5H)-one]
> 1000			CCCCNc1ncc2c3ccc(-c4cnn(C)c4)cc3c(=O)n([C@H]3CC[C@H](O)CC3)c2n1 [Example 7, 3-(Butylamino)-5-(trans-4-hydroxycyclohexyl)-8-(1-methyl-1H-pyrazol-4-yl)pyrimido[4,5-c]isoquinolin-6(5H)-one]
> 1000	< 100	100 to 1000	CCCCNc1ncc2c3ccc(CNC4CCOCC4)cc3c(=O)n([C@H]3CC[C@H](O)CC3)c2n1 [Example 4, 3-(Butylamino)-5-(trans-4-hydroxycyclohexyl)-8-[(tetrahydro-2H-pyran-4-ylamino)methyl]pyrimido[4,5-c]isoquinolin-6(5H)-one]
> 1000			CCCCNc1ncc2c(n1)N([C@H]1CC[C@H](O)CC1)Cc1cc(CN3CCOCC3)ccc1-2 [Example 1, trans-4-[3-(Butylamino)-8-(morpholin-4-ylmethyl)pyrimido[4,5-c]isoquinolin-5(6H)-yl]cyclohexanol]
	< 100	< 100	CCCCNc1ncc2c(n1)N([C@H]1CC[C@H](N)CC1)Cc1cc(CNC3CCCC3)ccc1-2 [Example 11, 5-(trans-4-aminocyclohexyl)-N-butyl-8-((cyclopentylamino)methyl)-5,6-dihydropyrimido[4,5-c]isoquinolin-3-amine]
	< 100	< 100	CCCCNc1ncc2c(n1)N([C@H]1CC[C@H](N)CC1)Cc1cc(CNC3CCOCC3)ccc1-2 [Example 10, 5-(trans-4-Aminocyclohexyl)-N-butyl-8-{[(tetrahydropyran-4-yl)amino]methyl}-5,6-dihydropyrimido[4,5-c]isoquinolin-3-amine]
> 1000			CCCCNc1ncc2c3ccc(CNCCO)cc3c(=O)n([C@H]3CC[C@H](O)CC3)c2n1 [Example 5, 3-(Butylamino)-5-(trans-4-hydroxycyclohexyl)-8-{[(2-hydroxyethyl)amino]methyl}pyrimido [4,5-c]isoquinolin-6(5H)-one]
